Assay results from patent publication US12637472B2, “Benzimidazole heteroatom-containing spiro compound and medicinal use thereof” (Changzhi University, priority 2023, dated 2026).
Where two headings read alike, the source gives them in different places.

Key:
Assay type in all cases: cell-based
[1] = system: Human liver tumor cells HepG2; assay: MTT in vitro cell proliferation inhibition experiment, HepG2; settings: MTT method, 48 h contact between compound and cell, read-out: Antiproliferative activity (IC50, μM) HepG2
Method: (§1) Human liver tumor cells HepG2, human colon cancer cells HCT116, and human gastric adenocarcinoma cells AGS were purchased from the Institute of Basic Medical Sciences, Chinese Academy of Medical Sciences. The cells each were preserved and passaged in the laboratory of the present disclosure according to respective cultivation data. Each cell line was routinely inoculated in a 50 mL cell culture flask, and cultivated with a 10% fetal bovine serum-containing DMEM/IRP-1640 medium at 37° C., 5% CO2, and 100% humidity, where the medium was changed daily. When growing to a confluency of 80% to 90%, cells were digested with a mixture of trypsin and EDTA and passaged according to 1:3.
(§2) An in vitro cell activity and proliferation inhibition experiment was conducted by an MTT method to investigate an impact of a target compound on a survival activity of each cell. Cells at a logarithmic growth phase were inoculated at 5×10^3 cells (100 μL)/well in a 96-well culture plate and cultivated for 24 h, and then compound solutions with different concentrations prepared in advance were added (100 μL) to the plate. At least 3 replicate wells were set for each concentration. A solvent control group without a compound and a blank control group without a cell were set. Edge wells each were filled with 200 μL of sterilized water. […] A liquid in each well was completely removed carefully, 150 μL of DMSO was added to each well, the plate was gently shaken on a microshaker for 10 min to make a purple crystal fully dissolved, and then an absorbance value was determined at 570 nm by a microplate reader. With a cell viability of the solvent control group without a compound as 100%, a cell survival rate was calculated as follows: a cell survival rate=(an absorbance value of a compound group−an absorbance value of the blank control group)/(an absorbance value of the control group−an absorbance value of the blank control group)×100%. A half-maximal inhibitory concentration (IC50) of a compound for a cell was calculated by the Graphpad Prism 5 software.

[2] = system: human gastric adenocarcinoma cells AGS; assay: MTT in vitro cell proliferation inhibition experiment, AGS; settings: MTT method, 48 h contact between compound and cell, read-out: Antiproliferative activity (IC50, μM) AGS
Method: as §1, §2

[3] = system: human colon cancer cells HCT116; assay: MTT in vitro cell proliferation inhibition experiment, HCT116; settings: 48 h contact between compound and cell, read-out: Antiproliferative activity (IC50, μM) HCT116
Method: as §1, §2

[4] = Homo sapiens, HCT-116, MTT method

Row | SMILES | IC50 ([1]; Homo sapiens) | IC50 ([2]; Homo sapiens) | IC50 [3, 4] | IC50 [1] | IC50 [2] | IC50 ([3]; MTT method)
1 | N.N.[Cl][Pt][Cl] [Cisplatin, reference compound] |  |  |  | 43.2 µM | 46 µM | 39.1 µM
2 | O=C(c1nc2ccccc2[nH]1)C1C(C2CCCCC2)C2CCCN2C12C(=O)c1ccccc1C2=O (stereo not drawn) [Compound 1, 2-(1H-benzimidazol-2-carbonyl)-1-cyclohexyl-1,2,5,6,7,7a-hexahydrospiroinden-2,3-pyrrolizine-1,3-dione] | > 100 µM | 40.8 µM | > 100 µM |  |  | 
3 | O=C(c1nc2ccccc2[nH]1)C1C(c2ccc(Cl)c(F)c2)C2CCCN2C12C(=O)c1ccccc1C2=O (stereo not drawn) [Compound 2, 2-(1H-benzimidazol-2-carbonyl)-1-(3-fluoro-4-chlorophenyl)-1,2,5,6,7,7a-hexahydrospiro[inden-2,3-pyrrolizine]-1,3-dione] | > 100 µM | > 100 µM | > 100 µM |  |  | 
4 | O=C(c1nc2ccccc2[nH]1)C1C(c2ccc(Cl)cc2)C2CCCN2C12C(=O)c1ccccc1C2=O (stereo not drawn) [Compound 3, 2-(1H-benzimidazol-2-carbonyl)-1-4-chlorophenyl-1,2,5,6,7,7a-hexahydrospiroinden-2,3-pyrrolizine-1,3-dione] | > 100 µM | 30 µM | 26.2 µM |  |  | 
5 | Cc1ccc(C2C3CCCN3C3(C(=O)c4ccccc4C3=O)C2C(=O)c2nc3ccccc3[nH]2)cc1 (stereo not drawn) [Compound 4, 2-(1H-benzimidazol-2-carbonyl)-1-p-tolyl-1,2,5,6,7,7a-hexahydrospiroinden-2,3-pyrrolizine-1,3-dione] | > 100 µM | 17.1 µM | 54.2 µM |  |  | 
6 | CCOc1ccc(C2C3CCCN3C3(C(=O)c4ccccc4C3=O)C2C(=O)c2nc3ccccc3[nH]2)cc1OCC (stereo not drawn) [Compound 5, 2-(1H-benzimidazol-2-carbonyl)-3,4-diethoxyphenyl-1,2,5,6,7,7a-hexahydrospiroinden-2,3-pyrrolizine-1,3-dione] | 80.7 µM | 36.9 µM | 17.4 µM |  |  | 
7 | O=C(c1nc2ccccc2[nH]1)C1C(c2cccc(Br)c2)C2CCCN2C12C(=O)c1ccccc1C2=O (stereo not drawn) [Compound 6, 2-(1H-benzimidazol-2-carbonyl)-1-3-bromophenyl-1,2,5,6,7,7a-hexahydrospiroinden-2,3-pyrrolizine-1,3-dione] | 11.7 µM | 4 µM | 6.64 µM |  |  | 
8 | CCOc1ccc(C2C3CCCN3C3(C(=O)c4ccccc4C3=O)C2C(=O)c2nc3ccccc3[nH]2)cc1 (stereo not drawn) [Compound 7, 2-(1H-benzimidazol-2-carbonyl)-1-(4-ethoxyphenyl)-1,2,5,6,7,7a-hexahydrospiroinden-2,3-pyrrolizine-1,3-dione] | 20.5 µM | 7.73 µM | 7.99 µM |  |  | 
9 | O=C(c1nc2ccccc2[nH]1)C1C(c2ccc(Br)cc2)C2CCCN2C12C(=O)c1ccccc1C2=O (stereo not drawn) [Compound 8, 2-(1H-benzimidazol-2-carbonyl)-1-4-bromophenyl-1,2,5,6,7,7a-hexahydrospiroinden-2,3-pyrrolizine-1,3-dione] | > 100 µM | 25.7 µM | 17.4 µM |  |  | 
10 | CC(C)CC1NC2(C(=O)c3ccccc3C2=O)C(C(=O)c2nc3ccccc3[nH]2)C1c1ccc(Cl)c(F)c1 (stereo not drawn) [Compound 10, 3-(1H-benzimidazol-2-carbonyl)-4-(3-fluoro-4-chlorophenyl)-5-isobutylspiro[inden-2,2′-pyrrolidine]-1,3-dione] | 87.7 µM | 46.7 µM | 15.7 µM |  |  | 

Now from value to molecule, other results behind:

Row | IC50 ([1]; Homo sapiens) | IC50 ([2]; Homo sapiens) | IC50 [3, 4] | SMILES | IC50 [1] | IC50 [2] | IC50 ([3]; MTT method)
11 | > 100 µM | 69 µM | 20.3 µM | CC(C)CC1NC2(C(=O)c3ccccc3C2=O)C(C(=O)c2nc3ccccc3[nH]2)C1C1CCCCC1 (stereo not drawn) [Compound 9, 3-(1H-benzimidazol-2-carbonyl)-4-cyclohexyl-5-isobutylspiro[inden-2,2′-pyrrolidine]-1,3-dione] |  |  | 
12 | > 100 µM | > 100 µM | 30.3 µM | CC(C)CC1NC2(C(=O)c3ccccc3C2=O)C(C(=O)c2nc3ccccc3[nH]2)C1c1ccc(Cl)cc1 (stereo not drawn) [Compound 11, 3-(1H-benzimidazol-2-carbonyl)-4-(4-chlorophenyl)-5-isobutylspiro[inden-2,2′-pyrrolidine]-1,3-dione] |  |  | 
13 | > 100 µM | 42.7 µM | 14.1 µM | Cc1ccc(C2C(CC(C)C)NC3(C(=O)c4ccccc4C3=O)C2C(=O)c2nc3ccccc3[nH]2)cc1 (stereo not drawn) [Compound 12, 3-(1H-benzimidazol-2-carbonyl)-5-isobutyl-4-p-tolylspiro[inden-2,2′-pyrrolidine]-1,3-dione] |  |  | 
14 | > 100 µM | > 100 µM | > 100 µM | CCOc1ccc(C2C(CC(C)C)NC3(C(=O)c4ccccc4C3=O)C2C(=O)c2nc3ccccc3[nH]2)cc1OCC (stereo not drawn) [Compound 13] |  |  | 
15 | 11.7 µM | 7.92 µM | 5.88 µM | CC(C)CC1NC2(C(=O)c3ccccc3C2=O)C(C(=O)c2nc3ccccc3[nH]2)C1c1cccc(Br)c1 (stereo not drawn) [Compound 14, 3-(1H-benzimidazol-2-carbonyl)-4-(3-bromophenyl)-5-isobutylspiro[inden-2,2′-pyrrolidine]-1,3-dione] |  |  | 
16 | > 100 µM | 85.7 µM | 28.8 µM | CCOc1ccc(C2C(CC(C)C)NC3(C(=O)c4ccccc4C3=O)C2C(=O)c2nc3ccccc3[nH]2)cc1 (stereo not drawn) [Compound 15, 3-(1H-benzimidazol-2-carbonyl)-4-(4-ethoxyphenyl)-5-isobutylspiro[inden-2,2′-pyrrolidine]-1,3-dione] |  |  | 
17 | 49.7 µM | 20.9 µM | 10.8 µM | CC(C)CC1NC2(C(=O)c3ccccc3C2=O)C(C(=O)c2nc3ccccc3[nH]2)C1c1ccc(Br)cc1 (stereo not drawn) [Compound 16, 3-(1H-benzimidazol-2-carbonyl)-4-(4-bromophenyl)-5-isobutylspiro[inden-2,2′-pyrrolidine]-1,3-dione] |  |  | 
18 | 16.2 µM | 14.7 µM | 11.1 µM | CCC(C)C1NC2(C(=O)c3ccccc3C2=O)C(C(=O)c2nc3ccccc3[nH]2)C1C1CCCCC1 (stereo not drawn) [Compound 17, 3-(1H-benzimidazol-2-carbonyl)-5-sec-butyl-4-cyclohexylspiro[inden-2,2′-pyrrolidine]-1,3-dione] |  |  | 
19 | > 100 µM | > 100 µM | > 100 µM | CCC(C)C1NC2(C(=O)c3ccccc3C2=O)C(C(=O)c2nc3ccccc3[nH]2)C1c1ccc(Cl)c(F)c1 (stereo not drawn) [Compound 18, 3-(1H-benzimidazol-2-carbonyl)-5-sec-butyl-4-(3-fluoro-4-chlorophenyl)spiro[inden-2,2′-pyrrolidine]-1,3-dione] |  |  | 
20 | > 100 µM | 87.5 µM | 42.1 µM | CCC(C)C1NC2(C(=O)c3ccccc3C2=O)C(C(=O)c2nc3ccccc3[nH]2)C1c1ccc(Cl)cc1 (stereo not drawn) [Compound 19, 3-(1H-benzimidazol-2-carbonyl)-5-sec-butyl-4-(4-chlorophenyl)spiro[inden-2,2′-pyrrolidine]-1,3-dione] |  |  | 
21 | > 100 µM | 94 µM | 51.3 µM | CCC(C)C1NC2(C(=O)c3ccccc3C2=O)C(C(=O)c2nc3ccccc3[nH]2)C1c1ccc(C)cc1 (stereo not drawn) [Compound 20, 3-(1H-benzimidazol-2-carbonyl)-5-sec-butyl-4-p-tolylspiro[inden-2,2′-pyrrolidine]-1,3-dione] |  |  | 
22 | 41.3 µM | 33.8 µM | 35.5 µM | CCOc1ccc(C2C(C(C)CC)NC3(C(=O)c4ccccc4C3=O)C2C(=O)c2nc3ccccc3[nH]2)cc1OCC (stereo not drawn) [Compound 21] |  |  | 
23 | 3.45 µM | 4.78 µM | 5.67 µM | CCC(C)C1NC2(C(=O)c3ccccc3C2=O)C(C(=O)c2nc3ccccc3[nH]2)C1c1cccc(Br)c1 (stereo not drawn) [Compound 22, 3-benzimidazol-2-carbonyl-4-(3-bromophenyl)-5-sec-butylspiro[inden-2,2′-pyrrolidine]-1,3-dione] |  |  | 
24 | 8.78 µM | 45.8 µM | 9.67 µM | CCOc1ccc(C2C(C(C)CC)NC3(C(=O)c4ccccc4C3=O)C2C(=O)c2nc3ccccc3[nH]2)cc1 (stereo not drawn) [Compound 23, 3-(1H-benzimidazol-2-carbonyl)-5-sec-butyl-4-(4-ethoxyphenyl)spiro[inden-2,2′-pyrrolidine]-1,3-dione] |  |  | 
25 | 67.8 µM | 3.67 µM | 45.8 µM | CCC(C)C1NC2(C(=O)c3ccccc3C2=O)C(C(=O)c2nc3ccccc3[nH]2)C1c1ccc(Br)cc1 (stereo not drawn) [Compound 24, 3-(1H-benzimidazol-2-carbonyl)-4-(4-bromophenyl)-5-sec-butylspiro[inden-2,2′-pyrrolidine]-1,3-dione] |  |  | 
